Article PMC3895372 (Nature communications, 2014)

How the values were obtained:
µ-calpain = biological target: T1, µ-calpain (Sus scrofa, UniProt P35750); assay: fluorogenic Suc-Leu-Tyr-AMC hydrolysis assay with purified enzyme; format: biochemical
T1 sequence (P35750 1-714): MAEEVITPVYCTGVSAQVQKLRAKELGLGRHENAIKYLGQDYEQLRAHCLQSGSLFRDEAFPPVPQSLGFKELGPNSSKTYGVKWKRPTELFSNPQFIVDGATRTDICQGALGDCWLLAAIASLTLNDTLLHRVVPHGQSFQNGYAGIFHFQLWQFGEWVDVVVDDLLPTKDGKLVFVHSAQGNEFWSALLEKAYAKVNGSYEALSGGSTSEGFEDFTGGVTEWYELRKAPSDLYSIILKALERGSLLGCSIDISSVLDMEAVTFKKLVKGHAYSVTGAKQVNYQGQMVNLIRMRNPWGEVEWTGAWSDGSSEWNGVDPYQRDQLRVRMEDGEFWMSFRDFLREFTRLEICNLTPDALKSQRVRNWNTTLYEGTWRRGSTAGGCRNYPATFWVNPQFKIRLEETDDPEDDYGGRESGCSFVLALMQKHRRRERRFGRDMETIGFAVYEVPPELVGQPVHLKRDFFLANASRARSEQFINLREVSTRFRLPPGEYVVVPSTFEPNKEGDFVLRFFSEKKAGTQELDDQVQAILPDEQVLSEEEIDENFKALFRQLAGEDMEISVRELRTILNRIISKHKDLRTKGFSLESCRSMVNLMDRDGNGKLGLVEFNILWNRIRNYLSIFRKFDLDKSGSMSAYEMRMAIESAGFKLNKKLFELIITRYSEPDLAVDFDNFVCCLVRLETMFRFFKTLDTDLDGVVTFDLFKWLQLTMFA
T1 sequence (P04574 1-266 partner): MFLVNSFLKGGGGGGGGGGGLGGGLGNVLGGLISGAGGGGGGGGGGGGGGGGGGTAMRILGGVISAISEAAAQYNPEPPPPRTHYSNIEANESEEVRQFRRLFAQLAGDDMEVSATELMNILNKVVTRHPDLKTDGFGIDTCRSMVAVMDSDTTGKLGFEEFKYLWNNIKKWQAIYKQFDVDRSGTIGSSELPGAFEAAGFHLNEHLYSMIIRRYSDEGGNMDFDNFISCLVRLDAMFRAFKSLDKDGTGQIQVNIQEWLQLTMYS

m-calpain = biological target: T2, m-calpain (Rattus norvegicus, UniProt Q07009); assay: as above; format: biochemical
T2 sequence (Q07009 20-700): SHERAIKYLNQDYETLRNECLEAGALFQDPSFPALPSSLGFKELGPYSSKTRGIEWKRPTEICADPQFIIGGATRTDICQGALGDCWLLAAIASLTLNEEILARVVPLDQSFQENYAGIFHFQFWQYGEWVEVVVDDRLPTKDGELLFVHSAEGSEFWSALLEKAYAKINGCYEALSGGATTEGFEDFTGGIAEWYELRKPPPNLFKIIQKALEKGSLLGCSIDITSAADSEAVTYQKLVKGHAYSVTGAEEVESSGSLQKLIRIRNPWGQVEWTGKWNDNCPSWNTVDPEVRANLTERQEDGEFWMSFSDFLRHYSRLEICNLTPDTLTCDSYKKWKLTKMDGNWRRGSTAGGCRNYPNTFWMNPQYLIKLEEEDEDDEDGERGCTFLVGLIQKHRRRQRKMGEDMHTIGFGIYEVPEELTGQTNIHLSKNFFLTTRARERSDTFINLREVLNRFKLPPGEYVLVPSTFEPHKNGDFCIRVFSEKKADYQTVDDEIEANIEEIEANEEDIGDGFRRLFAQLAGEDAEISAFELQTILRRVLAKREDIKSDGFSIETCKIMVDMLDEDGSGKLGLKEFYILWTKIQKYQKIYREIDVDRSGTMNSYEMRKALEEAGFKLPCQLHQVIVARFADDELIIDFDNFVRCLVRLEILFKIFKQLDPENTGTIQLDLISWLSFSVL
T2 sequence (Q64537 1-270 partner): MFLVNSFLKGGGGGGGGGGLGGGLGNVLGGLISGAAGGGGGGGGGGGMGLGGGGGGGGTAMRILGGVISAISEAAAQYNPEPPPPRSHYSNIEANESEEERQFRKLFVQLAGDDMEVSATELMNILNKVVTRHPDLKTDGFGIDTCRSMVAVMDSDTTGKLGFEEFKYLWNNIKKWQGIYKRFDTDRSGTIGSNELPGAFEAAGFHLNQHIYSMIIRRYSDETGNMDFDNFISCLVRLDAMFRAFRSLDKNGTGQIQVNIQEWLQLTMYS

Ki (µ-calpain): 0.94 µM
Ki (m-calpain): 0.025 µM
SMILES: CC[C@H](NC(=O)[C@H](CC(C)C)NC(=O)OCc1ccccc1)C(=O)C(=O)NCc1cc(OC)cc(OC)c1 [mCalp-I]
